Test results from publication PMC12436592 (Nature Communications, 2025).
Values joined by “and” are separate entries in the source; they are usually repeats but may differ in a detail not shown here. Equal entries are not always repeated. Blank lines part the entries; values can stand above or below the molecule they belong to.

Key:
mP2X7R = target: T1, mP2X7R (Mus musculus, UniProt Q9Z1M0); test: TEVC dose response of ATP at mP2X7R in Xenopus oocytes; format: cell-based
T1 construct: expressed in transfected cells
T1 sequence (Q9Z1M0 1-595): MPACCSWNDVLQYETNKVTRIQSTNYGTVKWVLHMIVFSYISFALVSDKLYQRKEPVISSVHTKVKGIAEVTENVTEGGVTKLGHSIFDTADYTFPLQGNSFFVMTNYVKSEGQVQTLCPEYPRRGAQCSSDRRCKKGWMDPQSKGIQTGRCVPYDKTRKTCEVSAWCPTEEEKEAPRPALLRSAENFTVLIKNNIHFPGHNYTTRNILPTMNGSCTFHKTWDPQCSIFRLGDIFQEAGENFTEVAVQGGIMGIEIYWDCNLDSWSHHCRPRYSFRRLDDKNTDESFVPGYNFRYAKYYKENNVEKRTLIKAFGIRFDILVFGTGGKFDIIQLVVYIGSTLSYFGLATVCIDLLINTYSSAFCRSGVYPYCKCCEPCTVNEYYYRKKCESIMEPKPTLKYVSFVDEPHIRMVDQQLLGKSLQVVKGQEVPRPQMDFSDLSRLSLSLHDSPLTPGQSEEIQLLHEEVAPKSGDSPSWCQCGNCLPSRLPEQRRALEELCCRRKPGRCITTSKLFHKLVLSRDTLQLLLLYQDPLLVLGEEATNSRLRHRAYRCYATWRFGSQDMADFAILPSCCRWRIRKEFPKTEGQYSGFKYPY
Protocol: (§1) Defolliculated Xenopus laevis oocytes were purchased from Ecocyte Bioscience and kept in Modified Barth’s Solution (88 mM NaCl, 1 mM KCl, 0.82 mM MgSO4, 0.33 mM Ca(NO3)2·4H2O, 0.41 mM CaCl2·2H2O, 2.4 mM NaHCO3, 5 mM HEPES) supplemented with amikacin 250 mg/L and gentamycin 150 mg/L. Oocytes were then injected with 50 nL of either full-length wild-type hP2X7R (40 ng/μL), mP2X7R (20 ng/μL), or rP2X7R (20 ng/μL) mRNA made from linearized pcDNA 3.1x according to the protocol provided in the mMessage mMachine kit (Invitrogen). Injected oocytes were allowed to express for ~20 h before recording was performed.
(§2) Data acquisition was performed using an Oocyte Clamp OC-725C amplifier and pClamp 8.2 software. Buffers were applied using a gravity-fed RSC-200 Rapid Solution Changer, flowing at ~5 mL/min. All experiments use Sutter filamented glass 10 cm in length with an inner diameter of 0.69 mm and an outer diameter of 1.2 mm to impale oocytes and clamp the holding voltage at −60 mV. Experiments were recorded in buffer containing 100 mM NaCl, 2.5 mM KCl, 0.1 mM EDTA, 0.1 mM flufenamic acid, and 5 mM HEPES at pH 7.4.
(§3) This value is then averaged amongst each singular condition and reported as the mean ± SD.

hP2X7R [1] = target: T2, hP2X7R (Homo sapiens, UniProt Q99572); test: Bio-layer interferometry (BLI), ATP binding to biotinylated hP2X7R
T2 sequence (Q99572 1-595): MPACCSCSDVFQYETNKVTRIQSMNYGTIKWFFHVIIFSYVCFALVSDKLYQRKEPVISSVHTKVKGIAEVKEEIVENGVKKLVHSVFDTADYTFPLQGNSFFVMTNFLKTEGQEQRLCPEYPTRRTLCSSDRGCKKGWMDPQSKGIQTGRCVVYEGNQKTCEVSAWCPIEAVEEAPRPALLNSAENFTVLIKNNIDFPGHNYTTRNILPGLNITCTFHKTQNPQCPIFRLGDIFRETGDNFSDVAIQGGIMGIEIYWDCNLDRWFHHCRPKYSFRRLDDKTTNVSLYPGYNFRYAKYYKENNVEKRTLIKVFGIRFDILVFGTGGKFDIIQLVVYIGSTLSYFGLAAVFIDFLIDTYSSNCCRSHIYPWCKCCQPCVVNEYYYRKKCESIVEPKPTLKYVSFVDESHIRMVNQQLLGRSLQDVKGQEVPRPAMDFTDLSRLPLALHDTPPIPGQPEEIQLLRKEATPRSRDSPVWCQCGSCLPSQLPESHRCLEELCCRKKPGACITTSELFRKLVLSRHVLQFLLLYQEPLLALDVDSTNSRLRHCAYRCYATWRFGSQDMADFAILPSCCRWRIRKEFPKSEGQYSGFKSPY
Protocol: Briefly, BLI experiments were performed at 30 °C in 384-well tilted-bottom plates (Sartorius) with orbital shaking at 1000 r.p.m. on a ForteBio Octet RED384 instrument (ForteBio Data Acquisition software 11.0) using pre-equilibrated (0.22 μm filtered PBS at pH 7.4 and 0.5 mM DDM from Anatrace) SA biosensor tips (Sartorious) loaded with 50 μg/mL of biotinylated hP2X7R ligand or biocytin (Sigma-Aldrich) control for 1800 s[34],[35]. The loaded SA sensors were blocked with 100 μg/mL of biocytin for 150 s and then washed with running buffer for 60 s. […] After data collection, rate constants for association and dissociation were determined using ForteBio Data Analysis HT 11.0 evaluation software. To maximize signal between the large ligand and small analyte, the raw data were double reference subtracted[34],[35]. For each interaction pair, the association rate constant (ka) and the dissociation rate constant (kd) were calculated with an average of three independent assays with at least four different concentrations that were globally fit to a 1:1 Langmuir binding model. The equilibrium dissociation constant (KD) was calculated as the ratio of kd to ka. The KD, ka, and kd values are reported as the average ± the standard deviation of three replicate datasets for each analyte, with each dataset using at least four independent traces. The analyzed data were exported and plotted in GraphPad Prism 9.0.

rP2X7R [2] = target: rP2X7R; set-up: method as in PMID 39107314; details: BLI; read-out: equilibrium dissociation constant (KD), rP2X7R; cited from earlier work
hP2X7R [3] = target: T2, hP2X7R; test: TEVC dose response of ATP at hP2X7R in Xenopus oocytes; format: cell-based; set-up: expressed in transfected cells; host or cells: Xenopus laevis oocytes injected with mRNA made from pcDNA 3.1x
Protocol: as §1, §2, §3

rP2X7R [4] = target: T3, rP2X7R (Rattus norvegicus, UniProt Q64663); test: TEVC dose response of ATP at rP2X7R in Xenopus oocytes; format: cell-based; set-up: expressed in transfected cells; host or cells: Xenopus laevis oocytes injected with mRNA made from pcDNA 3.1x
T3 sequence (Q64663 1-595): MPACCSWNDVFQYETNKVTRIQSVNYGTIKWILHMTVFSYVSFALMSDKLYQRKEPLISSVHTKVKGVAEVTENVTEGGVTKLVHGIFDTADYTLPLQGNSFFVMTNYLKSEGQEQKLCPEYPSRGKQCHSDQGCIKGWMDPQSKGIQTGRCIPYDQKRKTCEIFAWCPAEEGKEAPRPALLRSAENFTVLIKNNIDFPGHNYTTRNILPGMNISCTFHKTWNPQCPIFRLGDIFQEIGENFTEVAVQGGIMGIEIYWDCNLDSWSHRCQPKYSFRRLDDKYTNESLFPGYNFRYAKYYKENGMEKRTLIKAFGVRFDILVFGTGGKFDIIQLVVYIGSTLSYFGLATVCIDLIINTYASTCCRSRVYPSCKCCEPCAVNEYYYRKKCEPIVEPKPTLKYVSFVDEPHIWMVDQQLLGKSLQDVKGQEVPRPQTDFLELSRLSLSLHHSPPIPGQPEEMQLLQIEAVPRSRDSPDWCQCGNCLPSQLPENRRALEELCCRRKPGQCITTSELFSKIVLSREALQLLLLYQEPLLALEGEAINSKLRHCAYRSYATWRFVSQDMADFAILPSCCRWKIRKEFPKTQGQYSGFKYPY
Protocol: as §1, §2, §3

[5] = set-up: method as in PMID 39139642; details: cited from earlier work
P2X7R = details: cited from earlier work
[6] = target: the molecule itself; test: cryo-EM structure; purified detergent-solubilised receptor (20 mM HEPES pH 7.0, 100 mM NaCl, 0.5 mM C12M); apo, or incubated with 900 uM ATP or antagonist at 3-4x the molar concentration of the monomer
[7] = [ATP] 3000 μM, single experiments

Normalized response, mP2X7R (mP2X7R; [ATP] 1.2 μM): 0.02 and 0.01
Normalized response, mP2X7R (mP2X7R; [ATP] 3.7 μM): 0.017 and 0.013 and 0.009
Normalized response, mP2X7R (mP2X7R; [ATP] 37 μM): 0.27 and 0.22 and 0.15
Normalized response, mP2X7R (mP2X7R; [ATP] 1000 μM): 1 and 0.88
Normalized response, mP2X7R (mP2X7R; [7]): 1 and 0.9
EC50 (mP2X7R; read-out: EC50 for ATP, mP2X7R, TEVC, absence of divalent cations, mean ± SD, triplicate): 70 ± 17 µM
rate constant for association (ka) (hP2X7R [1]; BLI, 1:1 Langmuir model): 7.4 ± 1.3 × 10^4 M^−1 s^−1
rate constant for dissociation (kd) (hP2X7R [1]; BLI, 1:1 Langmuir model): 4.8 ± 1.2 × 10^−2 s^−1
Kd (hP2X7R [1]; BLI, mean ± SD, triplicate, read-out: equilibrium dissociation constant (KD), hP2X7R): 0.65 ± 0.12 µM
KD higher than at the rP2X7R (hP2X7R [1]; hP2X7R vs rP2X7R): ~ 20%
ka slower than for ATP binding to the rP2X7R (hP2X7R [1]; hP2X7R vs rP2X7R): ~ 27%
kd slower than for ATP binding to the rP2X7R (hP2X7R [1]; hP2X7R vs rP2X7R): ~ 6%
Normalized response, hP2X7R (hP2X7R [3]; [ATP] 37 μM): 0.2 and 0.1456
Normalized response, hP2X7R (hP2X7R [3]; [ATP] 1000 μM): 1 and 1.01 and 0.9474
Normalized response, hP2X7R (hP2X7R [3]; [7]): 1.044 and 1.035 and 1.029
EC50 (hP2X7R [3]; read-out: EC50 for ATP, hP2X7R, TEVC, absence of divalent cations, mean ± SD, triplicate): 89 ± 8.3 µM
Normalized response, rP2X7R (rP2X7R [4]; [ATP] 2 μM): 0
Normalized response, rP2X7R (rP2X7R [4]; [ATP] 37 μM): 0.41 and 0.5375 and 0.6343
Normalized response, rP2X7R (rP2X7R [4]; [ATP] 1000 μM): 0.98 and 0.9571 and 0.9954
Normalized response, rP2X7R (rP2X7R [4]; [7]): 1 and 0.9691
EC50 (rP2X7R [4]; read-out: EC50 for ATP, rP2X7R, TEVC, absence of divalent cations, mean ± SD, triplicate): 34 ± 8.4 µM
Molecule: Nc1ncnc2c1ncn2[C@@H]1O[C@H](COP(=O)(O)OP(=O)(O)OP(=O)(O)O)[C@@H](O)[C@H]1O [ATP]
Kd (rP2X7R [2]): 0.54 ± 0.23 µM

Molecule: O=C(NCC12CC3CC(CC(C3)C1)C2)c1cc(CCCNCCCO)ccc1Cl [AZD9056]
efficacy in phase II trials for rheumatoid arthritis [5]: limited efficacy

Molecule: Clc1cccc(-c2nnnn2Cc2cccnc2)c1Cl [Compound A438079]
inhibitory activity across human, mouse and rat orthologs (P2X7R): equal inhibitory activity across all three orthologs

B1: full-length wild-type human P2X7 receptor (receptor, UniProt Q99572 1-595, looked up)
chain: T2 sequence (Q99572 1-595)
modifications: palmitoylation of residues in the C-cys anchor; limited glycosylation, acylation and palmitoylation modelled
notes: P2X7 receptor (P2X purinoceptor 7), human, full-length wild-type, no mutations or truncations; C-terminal HRV 3-C site, GFP and histidine tag removed during purification; Homotrimeric ion channel; also called hP2X7R; hP2X7; not shown: GFP, C-terminal, cleaved
stoichiometry N [6]: 3

B2: full-length wild-type mouse P2X7 receptor (receptor, UniProt Q9Z1M0 1-595, looked up)
chain: T1 sequence (Q9Z1M0 1-595)
modifications: palmitoylation of residues in the C-cys anchor
notes: P2X7 receptor (P2X purinoceptor 7), mouse, full-length wild-type, no mutations or truncations; C-terminal HRV 3-C site, GFP and histidine tag removed during purification; Homotrimeric ion channel; solved in the apo closed state; also called mP2X7R; mP2X7; not shown: GFP, C-terminal, cleaved
stoichiometry N [6]: 3
